Experimental data: patent publication US11013726B2 (Arbutus Biopharma Corporation, priority 2016, dated 2021)

These molecules were tested on HBsAg (assay: HBsAg assay). Conditions: Hepatitis B virus, HepG2.2.15, 144 h, read-out: sAg EC50, μM, HepG2.2.15 cells, day 6.
Assay type: cell-based, hepatitis B virus
Description: Inhibition of HBsAg was determined in HepG2.2.15 cells. Cells were maintained in culture medium containing 10% fetal calf serum, […], Glutamine, penicillin/streptomycin. Cells were seeded in 96-well collagen-coated plate at a density of 30,000 cells/well. Serially diluted compounds were added to cells next day at the final DMSO concentration of 0.5%. Cells were incubated with compounds for 2-3 days, after which medium was removed. Fresh medium containing compounds was added to cells for additional 3-4 days. At day 6 after exposure of compounds, supernatant was collected, the HBsAg immunoassay (microplate-based chemiluminescence immunoassay kits, CLIA, Autobio Diagnosics Co., Zhengzhou, China, Catalog # CL0310-2) was used to determine the level of HBsAg according to manufactory instruction. Dose-response curves were generated and the EC50 value (effective concentrations that achieved 50% inhibitory effect) were determined using XLfit software. In addition, cells were seeded at a density of 5,000 cells/well for determination of cell viability in the presence and absence of compounds by using CellTiter-Glo reagent (Promega). Tables 1-3 show EC50 values obtained by the HBsAg assay for selected compounds.
In the case of `CCc1cc2c(cc1OCCCO)OC[C@@H](C(C)C)n1cc(C(=O)O)c(=O)cc1-2` [Example 56, (R)-2-Ethyl-3-(3-hydroxypropoxy)-7-isopropyl-11-oxo-6,7-dihydro-111H-benzo[f]pyrido[1,2-d][1,4]oxazepine-10-carboxylic acid], the EC50 is reported as 0.026 µM. `COc1cc2c(cn1)-c1cc(=O)c(C(=O)O)cn1C(C(C)C)C2` (stereo not shown) [Example 86, 6-isopropyl-3-methoxy-10-oxo-5,10-dihydro-6H-pyrido[2,1-a][2,7]naphthyridine-9-carboxylic acid] showed an EC50 of 1 µM. `CC(C)[C@@H]1COc2cc(OCCCN3CCOCC3)c(Cl)cc2-c2cc(=O)c(C(=O)O)cn21` [Example 40, (R)-2-Chloro-7-isopropyl-3-(3-morpholinopropoxy)-11-oxo-6,7-dihydro-11H-benzo[f]pyrido[1,2-d][1,4]oxazepine-10-carboxylic acid] gave an EC50 of 0.14 µM. For `COCCOc1cc2c(cc1Cl)-c1cc(=O)c(C(=O)O)cn1[C@H](C(C)C)CO2` (single isomer, unassigned) [Example 30], the EC50 was 0.053 µM. For `COCCCOc1cc2c(cc1Cl)-c1cc(=O)c(NC(=O)OCC(C)(C)C)cn1C(C(C)(C)C)C2` (stereo not shown) [Example 124, Neopentyl (6-(tert-butyl)-10-chloro-9-(3-methoxypropoxy)-2-oxo-6,7-dihydro-2H-pyrido[2,1-a]isoquinolin-3-yl)carbamate], the EC50 was 16 µM. Work on `CCc1cc2c(cc1OCC(F)(F)F)OC[C@@H](C(C)C)n1cc(C(=O)O)c(=O)cc1-2` [Example 58, (R)-2-Ethyl-7-isopropyl-11-oxo-3-(2,2,2-trifluoroethoxy)-6,7-dihydro-11H-benzo[f]pyrido[1,2-d][1,4]oxazepine-10-carboxylic acid] yielded an EC50 of 0.021 µM. In the case of `COc1cc2c(cc1Cl)-c1cc3noc(=O)c-3cn1C(C(C)C)CO2` (stereo not shown) [Example 151, 2-Chloro-7-isopropyl-3-methoxy-6,7-dihydro-10H-benzo[f]isoxazolo[3′,4′:4,5]pyrido[1,2-d][1,4]oxazepin-10-one], the EC50 is reported as 13 µM. `COCCCOc1cc2c(nc1OC)-c1cc(=O)c(-c3nnc(C)s3)cn1[C@H](C(C)C)C2` [Example 108, (S)-6-Isopropyl-2-methoxy-3-(3-methoxypropoxy)-9-(5-methyl-1,3,4-thiadiazol-2-yl)-5,6-dihydro-10H-pyrido[1,2-h][1,7]naphthyridin-10-one] was tested, and the EC50 was 0.045 µM. Molecule `COCCCOc1cc2c(cc1Cl)-c1cc(=O)c(I)cn1C(C(C)(C)C)C2` (stereo not shown) [Example 131, 6-Tert-butyl-10-chloro-3-iodo-9-(3-methoxypropoxy)-6H,7H-pyrido[2,1-a]isoquinolin-2-one] has an EC50 of 2.4 µM. Molecule `COCCCOc1cc2c(cc1Cl)-c1cc(=O)c(-n3nn[nH]c3=O)cn1C(C(C)(C)C)C2` (stereo not shown) [Example 114, 6-(Tert-butyl)-10-chloro-9-(3-methoxypropoxy)-3-(5-oxo-4,5-dihydro-1H-tetrazol-1-yl)-6,7-dihydro-2H-pyrido [2,1-a]isoquinolin-2-one] has an EC50 of 3 µM. Molecule `CCOC(=O)c1cn2c(cc1=O)-c1cc(Cl)c(O)cc1OCC2C(C)C` (stereo not shown) [Example 32, Ethyl 2-chloro-3-hydroxy-7-isopropyl-11-oxo-6,7-dihydro-11H-benzo[f]pyrido[1,2-d][1,4]oxazepine-10-carboxylate] has an EC50 of 22 µM. `CN=c1cc2n(cc1C(=O)O)C(C(C)C)Cc1cc(OCCCOC)c(OC)cc1-2` (stereo not shown) [Example 147] showed an EC50 of 0.65 µM. `COCCCCOc1cc2c(cc1Cl)-c1cc(=O)c(C(=O)O)cn1[C@H](C(C)C)CO2` [Example 38, (R)-2-Chloro-7-isopropyl-3-(4-methoxybutoxy)-11-oxo-6,7-dihydro-11H-benzo[f]pyrido[1,2-d][1,4]oxazepine-10-carboxylic acid] showed an EC50 of 0.017 µM. `CC(C)COc1cc2c(cc1C1CC1)-c1cc(=O)c(C(=O)O)cn1[C@H](C(C)C)CO2` [Example 44, (R)-2-Cyclopropyl-3-isobutoxy-7-isopropyl-11-oxo-6,7-dihydro-11H-benzo[f]pyrido[1,2-d][1,4]oxazepine-10-carboxylic acid] gave an EC50 of 0.006 µM. In the case of `Cc1cc2c(cc1OCC(F)(F)F)OC[C@@H](C(C)C)n1cc(C(=O)O)c(=O)cc1-2` [Example 59, (R)-7-Isopropyl-2-methyl-11-oxo-3-(2,2,2-trifluoroethoxy)-6,7-dihydro-11H-benzo[f]pyrido[1,2-d][1,4]oxazepine-10-carboxylic acid], the EC50 is reported as 0.089 µM. Work on `COCCCOc1cc2c(nc1OC)-c1cc(=O)c(C(=O)O)cn1C1(CCC1)C2` [Example 171, 2′-Methoxy-3′-(3-methoxypropoxy)-10′-oxo-5′,10′-dihydrospiro[cyclobutane-1,6′-pyrido[1,2-h][1,7]naphthyridine]-9′-carboxylic acid] yielded an EC50 of 0.018 µM. In the case of `CC(C)[C@@H]1CCc2cc3c(nc2-c2cc(=O)c(C(=O)O)cn21)OCCCO3` [Example 169, (S)-6-Isopropyl-2-oxo-2,6,7,8,12,13-hexahydro-111-[1,4]dioxepino[2′,3′:5,6]pyrido[2,3-c]pyrido[1,2-a]azepine-3-carboxylic acid], the EC50 is reported as 2.2 µM. In the case of `COCCCOc1cc2c(nc1OC)-c1cc(=O)c(C(=O)NNC(C)=O)cn1[C@H](C(C)C)C2` [Example 154, (6S)—N′-Acetyl-6-isopropyl-2-methoxy-3-(3-methoxypropoxy)-10-oxo-5H,6H-pyrido[1,2-h]1,7-naphthyridine-9-carbohydrazide], the EC50 is reported as 0.029 µM. `COCCCOc1cc2c(cc1Cl)-c1cc(=O)c(N(c3ncccn3)c3ncccn3)cn1C(C(C)(C)C)C2` (stereo not shown) [Example 130, 6-(Tert-butyl)-10-chloro-3-(di(pyrimidin-2-yl)amino)-9-(3-methoxypropoxy)-6,7-dihydro-2H-pyrido[2,1-a]isoquinolin-2-one] showed an EC50 of 0.91 µM. In the case of `COCCCOc1cc2c(cc1Cl)-c1cc(=O)c(NS(=O)(=O)C(F)(F)F)cn1C(C(C)(C)C)C2` (stereo not shown) [Example 128, N-(6-(Tert-butyl)-10-chloro-9-(3-methoxypropoxy)-2-oxo-6,7-dihydro-2H-pyrido[2,1-a]isoquinolin-3-yl)-1,1,1-trifluoromethanesulfonamide], the EC50 is reported as 4.7 µM. With `COCCCOc1cc2c(cc1Cl)-c1cc(=NO)c(C(=O)OC)cn1C(C(C)(C)C)C2` (stereo not shown) [Example 144, Methyl 6-tert-butyl-10-chloro-2-(hydroxyimino)-9-(3-methoxypropoxy)-6H,7H-pyrido[2,1-a]isoquinoline-3-carboxylate] the EC50 was 0.17 µM. In the case of `COCCCOc1cc2c(nc1Cl)-c1cc(=O)c(C(=O)O)cn1C1(CCSCC1)CO2` [Example 74, 2-Chloro-3-(3-methoxypropoxy)-11-oxo-2′,3′,5′,6′-tetrahydro-6H,11H-spiro[dipyrido[1,2-d:2′,3′-f][1,4]oxazepine-7,4′-thiopyran]-10-carboxylic acid], the EC50 is reported as 5 µM. With `CCOP(=O)(OCC)c1cn2c(cc1=O)-c1cc(Cl)c(OCCCOC)cc1CC2C(C)(C)C` (stereo not shown) [Example 105, Diethyl (6-(tert-butyl)-10-chloro-9-(3-methoxypropoxy)-2-oxo-6,7-dihydro-2H-pyrido[2,1-a]isoquinolin-3-yl)phosphonate] the EC50 was 6.1 µM. `COCCCOc1cc2c(nc1Cl)-c1cc(=O)c(C(=O)O)cn1C1(CO2)CC(C)C1` (stereo not shown) [Example 73, 2′-Chloro-3′-(3-methoxypropoxy)-3-methyl-11′-oxo-6′H,11′H-spiro[cyclobutane-1,7′-dipyrido[1,2-d:2′,3′-f][1,4]oxazepine]-10′-carboxylic acid] showed an EC50 of 0.26 µM. In the case of `CC(C)C1Cc2sc(Cl)cc2-c2cc(=O)c(C(=O)O)cn21` (stereo not shown) [Example 85, 2-Chloro-5-isopropyl-9-oxo-4,9-dihydro-5H-thieno[3,2-a]quinolizine-8-carboxylic acid], the EC50 is reported as 16 µM. `CCc1cc2c(cc1OCC(C)C)OC[C@@H](C(C)C)n1cc(C(=O)O)c(=O)cc1-2` [Example 52, (R)-2-Ethyl-3-isobutoxy-7-isopropyl-11-oxo-6,7-dihydro-11H-benzo[f]pyrido[1,2-d][1,4]oxazepine-10-carboxylic acid] was tested, and the EC50 was 0.007 µM. Work on `COCCOc1cc2c(cc1Cl)-c1cc(=O)c(C(=O)O)cn1[C@@H](C(C)C)CO2` (single isomer, unassigned) [Example 31] yielded an EC50 of 0.8 µM.

Same assay, conditions: read-out: sAg EC50; HepG2.2.15 cells, day 6
`CC(C)(C)C1Cc2cc3c(cc2-c2cc(=O)c(C(=O)O)cn21)OCCCO3` (single isomer, unassigned) [Example 92, 6-(Tert-butyl)-2-oxo-6,7,11,12-tetrahydro-2H,10H-[1,4]dioxepino[2,3-g]pyrido[2,1-a]isoquinoline-3-carboxylic acid] showed an EC50 of 0.011 µM. `COCCCOc1cc2c([nH]c1=O)-c1cc(=O)c(C(=O)O)cn1C(C(C)C)C2` (single isomer, unassigned) [Example 167, 6-Isopropyl-3-(3-methoxypropoxy)-2,10-dioxo-2,5,6,10-tetrahydro-1H-pyrido[1,2-h][1,7]naphthyridine-9-carboxylic acid] gave an EC50 of 1 µM. `COc1cc2c(nc1OC)-c1cc(=O)c(C(=O)O)cn1C(C(C)C)C2` (single isomer, unassigned) [Example 25, 6-Isopropyl-2,3-dimethoxy-10-oxo-5,10-dihydro-6H-pyrido[1,2-h][1,7]naphthyridine-9-carboxylic acid] was tested, and the EC50 was 0.007 µM. `COCCCOc1cc2c(nc1OC)-c1cc(=O)c(C(=O)O)cn1C(C)(C(C)(C)C)C2` (single isomer, unassigned) [Example 160, 6-(Tert-butyl)-2-methoxy-3-(3-methoxypropoxy)-6-methyl-10-oxo-5,10-dihydro-6H-pyrido[1,2-h][1,7]naphthyridine-9-carboxylic acid] showed an EC50 of 0.038 µM.
